# Measured values from patent publication US4829086A, “Soft β-adrenergic blocking agents” (priority 1985, dated 1989).
# Columns and labels:
# β-adrenergic [1] = test: β-adrenergic activity of the acid metabolite (statement)
# [2] = Hydrolytic rate in 0.01 N aqueous sodium hydroxide, pH 12.0; assay type: physicochemical; conditions: pH 12.0, ionic strength 0.10 M (NaCl), 27.3 ± 0.2° C.; for Observed pseudo first order hydrolytic rate constant k: 0.01 N NaOH, ± SEM; for half-life: 0.01 n naoh, pH 12, 0.01 N NaOH, read-out: Half-life t1/2
# Procedure: (§1) Analytical Methods. A high pressure liquid chromatography (HPLC) method was developed for the determination of the rate constants. The chromatographic analysis was performed in a system consisting of Waters Associates Model 600-A Solvent Delivery System, Model U-6K Injector and Model 440 Dual Channel Absorbance Detector operated at 254 and 280 nm. A 30 cm×3.9 mm (internal diameter) reverse phase μBondpack C18 column (Waters Associates), operated at ambient temperature, was used for all separations. When plasma samples were analyzed, the column was protected with a 2.3 cm×3.9 mm (internal diameter) Guard Column (Waters) packed with μBondpack C18/Corasil packing material. The mobile phase used for the separation of 17 and its degradation product, 5, consisted of water, 1-hexane sulfonic acid in acetic acid (B-6 reagent, Waters), 0.1M triethanolamine and methanol (100:1:100:799). […] For the separation of compounds 10-16 and 18 and their degradation product 5, a mobile phase consisting of water, 1-hexane sulfonic acid in acetic acid (B-6 reagent, Waters), 0.1M triethanolamine and methanol (390:1:10:599) was used.
# (§2) Determination of the Hydrolytic Rate Constants in Aqueous Solutions. A 0.01M phosphate buffer and 0.01N sodium hydroxide solution were prepared from freshly distilled deionized water. This ionic strength was maintained at 0.1M with sodium chloride. The pH of the phosphate buffer was determined at 37.0° C. with a pH meter standardized at this temperature. For determination of the hydrolytic rate constants, a fresh concentrated solution of the ester in methanol was added to the hydrolytic medium previously equilibrated to the desired temperature and mixed thoroughly to result in an initial concentration of about 5×10^-4 mol. liter^-1. All reactions were run under pseudo first order conditions. Samples of 25 μL were injected into the column at various time intervals and the pseudo first order rate constants were determined from disappearance of the compound by linear regression of natural logarithm of the peak height versus time plots. The half-life and standard error of the rate constant were calculated for each run.
# [3] = Hydrolysis in 0.01M phosphate buffer pH 7.4; assay type: physicochemical; conditions: pH 7.4, 37° C.
# Procedure: Analytical Methods. A high pressure liquid chromatography (HPLC) method was developed for the determination of the rate constants. The chromatographic analysis was performed in a system consisting of Waters Associates Model 600-A Solvent Delivery System, Model U-6K Injector and Model 440 Dual Channel Absorbance Detector operated at 254 and 280 nm. A 30 cm×3.9 mm (internal diameter) reverse phase μBondpack C18 column (Waters Associates), operated at ambient temperature, was used for all separations. When plasma samples were analyzed, the column was protected with a 2.3 cm×3.9 mm (internal diameter) Guard Column (Waters) packed with μBondpack C18/Corasil packing material. The mobile phase used for the separation of 17 and its degradation product, 5, consisted of water, 1-hexane sulfonic acid in acetic acid (B-6 reagent, Waters), 0.1M triethanolamine and methanol (100:1:100:799). […]
# Determination of the Hydrolytic Rate Constants in Aqueous Solutions. […] The pH of the phosphate buffer was determined at 37.0° C. with a pH meter standardized at this temperature. […] Samples of 25 μL were injected into the column at various time intervals and the pseudo first order rate constants were determined from disappearance of the compound by linear regression of natural logarithm of the peak height versus time plots. The half-life and standard error of the rate constant were calculated for each run.
# [4] = Enzymatic hydrolytic cleavage in human plasma; assay type: in vitro ADME; conditions: 37.0 ± 0.1° C.; for Observed first order hydrolytic rate constant k: ± SEM; for half-life at 1000 µM: human, plasma, read-out: Half-life t1/2
# Procedure: as §1, §2
# Determination of the Enzymatic Hydrolytic Cleavage Rates in Human Plasma. The freshly collected plasma used was obtained from the Civitan Regional Blood Center, Inc. (Gainesville, Fla.) and contained about 80% plasma diluted with anticoagulant citrate phosphate dextrose solution, U.S.P. The plasma was stored in a refrigerator and used within one week from the date it was collected.
# A portion of 50 μL of a freshly prepared solution of the compound in methanol was added to 10 mL plasma, previously equilibrated at 37.0° C. in a water bath, and mixed thoroughly to result in an initial concentration of 1×10^-3 mol. liter^-1. One mL samples of plasma were withdrawn from the test medium, mixed immediately with 4.0 mL ice cold 95% v/v ethanol, centrifuged and the supernatant analyzed by HPLC. The first order hydrolytic rate constant was determined as before in the aqueous solutions and the results are listed in TABLE II below.
# [5] = tested on: heart rate response to isoproterenol (β-adrenergic); test: Heart rate response to isoproterenol in rats (initial drug screening); assay type: in vivo, male Spraque-Dawley rats; conditions: 6 mg/kg i.p.; mean ± SEM
# Text: (§3) Initial Drug Screening Protocol. Thirty-two male Spraque-Dawley rats (Blue Spruce Farms) initially weighing 300-450 gm were divided into seven different groups, each for a different drug to be tested: 12(n=4), 14(n=4), 17(n=5), 13(n=4) and 18(n=3), corresponding to the designated compounds 12, 14, 17, 13 and 18 (number of animals), respectively. The other two groups were controls (n=8, isoproterenol alone pretreated with carrier) and those treated with a known β-blocker, dl-propranolol (n=3). Ech animal was anesthetized with sodium pentobarbital (45 mg/kg) and the carotid artery was cannulated with PE-50 tubing. The cannula was subcutaneously threaded around the neck and exteriorized dorsally between the shoulder blades. Th cannula was filled with a heparin solution (300 μg/mL) and sealed with a solid 22 gauge stylet. The animals were housed in individual stainless steel cages, and two days were allowed for recovery from the surgery. Food and water were provided ad libitum. On the day of the experiment, the blood pressure and heart rate of each rat were monitored with a pressure transducer (Narco-Bio model P-1000) and the data recorded on a four-channel physiograph (Narco-Bio systems Marck IV). One hour was allowed as an equilibration period before any drugs were administered. All beta blockers were administered intraperitoneally at a dose of 6 mg/kg. Compounds 12 and 14 and dl-proranolol were dissolved in normal saline while compounds 13, 17 and 18 were dissolved in an ethanol: water solution (3:1). Depending on the trial, controls were administered the appropriate carrier. One hour after administration of the blocker, isoproterenol (Isuprel®, Wintrop Laboratories) was administered subcutaneously at a dose of 25 μg/kg. Blood pressures and heart rate also were recorded 3, 5, 10, 15, 20, 30, 45 and 60 minutes after isoproterenol administration. Both control and experimental animals were unrestrained and free moving in their home cage throughout the experiment. […] However, significant differences in the mean heart rate response amoung the 7 groups were observed: *p<0.005;**p<0.025. Comparisons between groups were made by the Newman-Keuls procedure with significance set at the 95% confidence interval. […] All data are shown as mean±standard error of the mean.
# [6] = tested on: blood pressure response to isoproterenol; test: Blood pressure response to isoproterenol in rats; assay type: in vivo, male Spraque-Dawley rats; conditions: 6 mg/kg i.p., isoproterenol 25 μg/kg s.c.; FIG. 3
# Text: as §3
# Symbols are the same as those described for FIG. 1. […] Data are shown as mean±standard error of the mean.
# β-adrenergic [7] = conditions: major metabolite found in the urine; Borg et al; cited from earlier work
Observed pseudo first order hydrolytic rate constant k [2] [min⁻¹],half-life [2] [min],half-life [3] [days],Observed first order hydrolytic rate constant k [4] [min⁻¹],half-life at 1000 µM [4] [min],SMILES,activity of acid (β-adrenergic [1]),resting heart rate prior to administration of isoproterenol [5] [beat/minute],mean change in blood pressure vs propranolol and compound 12-treated groups [6],activity as metabolite of metoprolol (β-adrenergic [7])
–,–,–,–,–,"CC(C)NCC(O)COc1ccc(CC(=O)O)cc1 (centres unmarked) [Compound 5, 4-(2-Hydroxy-3-isopropylamino)propoxyphenylacetic acid]",inactive,–,–,–
0.103 ± 0.001,6.73,8.7,0.143 ± 0.005,4.86,"CCCOC(=O)Cc1ccc(OCC(O)CNC(C)C)cc1 (centres unmarked) [Compound 11, n-Propyl 4-(2-hydroxy-3-isopropylamino)propoxyphenylacetate]",–,–,–,–
0.208 ± 0.004,3.33,13,0.236 ± 0.007,2.93,"CC(C)NCC(O)COc1ccc(CC(=O)OCc2ccccc2)cc1 (centres unmarked) [Compound 14, Benzyl 4-(2-hydroxy-3-isopropylamino)propoxyphenylacetate]",–,405±22,significantly lower (p<0.15),–
–,–,–,–,–,CC(C)NCC(O)COc1ccc(CC(=O)O)cc1 (centres unmarked) [drawing 10],–,–,–,inactive metabolite
